From ChEMBL document CHEMBL1201862, “PubChem BioAssay data set” (2004)
The source made the active and inactive calls.

What was measured:
[1] = molecular target: Mitochondrial peptide methionine sulfoxide reductase (Bos taurus, UniProt P54149); type: functional;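 further: absorbance read-out, biochemical high-throughput dose-response screen for MsrA inhibitors, confirmatory; recombinant bovine MsrA coupled to E. coli TrxB with NADPH and selenocystamine; potency is for inhibitors of MsrA activity on DMSO substrate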
[2] = molecular target: Adenosylmethionine-8-amino-7-oxononanoate aminotransferase (Mycobacterium tuberculosis, UniProt P9WQ81); experiment: Mycobacterium tuberculosis BioA enzyme inhibitor Measured in Biochemical System Using Plate Reader - 2163-02_Inhibitor_Dose_CherryPick_Activity.; type: functional, Mycobacterium tuberculosis UT205
[3] = intracellular Trypanosoma cruzi inhibitors in host cells – cell-based, plate reader, cherry-pick samples, set 3, dose response (AID 651818); type: functional;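 further: compounds incubated with infected cells for about four days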
Streptococcus = experiment: Group A Streptococcus viability loss, dose response, counter-screen for streptokinase expression inhibitor project, luminescence, BacTiterGlo (AID 1915); type: functional, organism-based;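 further: potency for reduction of bacterial viability or growth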
INS1 = experiment: beta cell apoptosis inhibitors, cytokine rescue, dose response, luminescence, retest (AID 449756); type: functional, cell-based; details: Rattus norvegicus, INS1;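 further: cell death triggered by IL-1 beta plus TNF-alpha plus IFN-gamma mixture; protective hits raise ATP signal compared with cytokine alone wells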
[4] = Luminescence-based counterscreen assay for KLF5 inhibitors: dose response cell-based high throughput screening assay to identify cytotoxic compounds using the IEC-6 intestinal epithelial cell line. [Related pubchem assays: 1700 (Primary screen.), 1834 (Confirmation screen.), 1858 (Summary AID.), 1905 (Counterscreen.)]; type: functional
[5] = tested on: Streptococcus sp. 'group A'; experiment: growth inhibition of control SK(-) GAS strain, dose response, counter-screen for streptokinase expression inhibitor project, luminescence, kanamycin, BacTiterGlo, confirmation (AID 1900); type: functional, organism-based
Nonstructural protein 1 = Nonstructural protein 1 (Influenza A virus, UniProt Q194T2); type: functional, Influenza A virus (A/California/07/2009(H1N1))
[6] = molecular target: T1, Latent membrane protein 1 (Human herpesvirus 4 (strain B95-8), UniProt P03230); experiment: TES1-eGFP NF-kB reporter inhibition versus Tet-On dsRED, dose response, selectivity assay for LMP1 NF-kB inhibitor project, imaging, HEK293T, dual-color eGFP/dsRED, cherry-picks (AID 588398); type: functional, cell-based
T1 sequence (P03230 whole entry): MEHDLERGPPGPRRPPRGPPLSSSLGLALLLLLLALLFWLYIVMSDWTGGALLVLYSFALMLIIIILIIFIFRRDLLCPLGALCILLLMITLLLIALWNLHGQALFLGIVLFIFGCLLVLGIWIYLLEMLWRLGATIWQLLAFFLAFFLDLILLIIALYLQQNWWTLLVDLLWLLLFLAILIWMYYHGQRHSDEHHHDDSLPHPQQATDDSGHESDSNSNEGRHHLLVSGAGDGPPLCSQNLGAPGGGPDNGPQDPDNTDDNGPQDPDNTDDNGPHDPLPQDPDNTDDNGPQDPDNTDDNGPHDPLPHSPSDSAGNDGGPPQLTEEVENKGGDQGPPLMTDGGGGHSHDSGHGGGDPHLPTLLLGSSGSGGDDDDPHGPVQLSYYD

[7] = StAR promoter reporter inhibition counter-screen, dose response, counter-screen for LRH-1 inverse agonist project, cell-based, luminescence, luciferase reporter (AID 651969); type: functional
Steroidogenic factor 1 = Steroidogenic factor 1 (Homo sapiens, UniProt Q13285); experiment: Counterscreen for inverse agonists of the liver receptor homolog-1 (LRH-1; NR5A2): Luminescence-based cell-based high throughput dose response assay to identify inverse agonists of the Steroidogenic Factor 1 Nuclear Receptor (SF1; NR5A1).; type: functional
[8] = molecular target: Nuclear receptor subfamily 5 group A member 2 (Homo sapiens, UniProt O00482); type: functional, cell-based;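 further: HEK293T cells transfected with LRH-1 and a StAR promoter luciferase reporter; potency for inhibitors that lower LRH-1 driven reporter light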
Cytochrome P450 2C19 = Cytochrome P450 2C19 (Homo sapiens, UniProt P33261); experiment: Cytochrome panel assay with activity outcomes. Panel member name: p450-cyp2c19 Compounds with AC50 equal or less than 10 uM are considered active; type: functional; details: read-out: AC50
HEK293 = experiment: inhibitors of LMP1-driven NF-kB reporter, dose response, cell-based, HEK293, luciferase, cherry-pick (AID 588343); type: functional; details: Homo sapiens
Cytochrome P450 1A2 = molecular target: T2, Cytochrome P450 1A2 (Homo sapiens, UniProt P05177);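 further: PubChem cytochrome P450 panel assay, CYP1A2 panel member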
T2 sequence (P05177 whole entry): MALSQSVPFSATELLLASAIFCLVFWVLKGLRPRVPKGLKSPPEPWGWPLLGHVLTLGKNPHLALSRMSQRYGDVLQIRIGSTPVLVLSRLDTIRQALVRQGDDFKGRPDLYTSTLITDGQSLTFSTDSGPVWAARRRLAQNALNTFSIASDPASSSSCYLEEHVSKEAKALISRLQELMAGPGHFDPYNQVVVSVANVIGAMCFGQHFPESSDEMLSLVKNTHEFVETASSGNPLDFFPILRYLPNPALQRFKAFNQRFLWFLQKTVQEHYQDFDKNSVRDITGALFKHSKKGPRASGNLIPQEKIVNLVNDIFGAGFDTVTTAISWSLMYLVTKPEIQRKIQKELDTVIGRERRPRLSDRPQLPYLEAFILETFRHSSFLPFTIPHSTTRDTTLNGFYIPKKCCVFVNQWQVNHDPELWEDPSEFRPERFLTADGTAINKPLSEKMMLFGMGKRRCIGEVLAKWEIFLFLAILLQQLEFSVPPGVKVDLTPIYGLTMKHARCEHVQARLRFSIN

[9] = inhibitors of clade B AD8 Env fusion, dose response, cell-based, cherry-pick (AID 652062); type: functional;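 further: luciferase signal from cell-cell fusion driven by HIV-1 clade B AD8 Env; potency is for inhibitors of fusion seen as a drop in luminescence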
[10] = inhibitors of HIV Env-driven cell fusion, dose response, cherry-pick (AID 652057); type: functional, cell-based
Cytochrome P450 2D6 = Cytochrome P450 2D6 (Homo sapiens, UniProt P10635);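 further: CYP2D6 member of a cytochrome P450 panel assay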
Sequence of Cytochrome P450 2D6 (P10635 whole entry): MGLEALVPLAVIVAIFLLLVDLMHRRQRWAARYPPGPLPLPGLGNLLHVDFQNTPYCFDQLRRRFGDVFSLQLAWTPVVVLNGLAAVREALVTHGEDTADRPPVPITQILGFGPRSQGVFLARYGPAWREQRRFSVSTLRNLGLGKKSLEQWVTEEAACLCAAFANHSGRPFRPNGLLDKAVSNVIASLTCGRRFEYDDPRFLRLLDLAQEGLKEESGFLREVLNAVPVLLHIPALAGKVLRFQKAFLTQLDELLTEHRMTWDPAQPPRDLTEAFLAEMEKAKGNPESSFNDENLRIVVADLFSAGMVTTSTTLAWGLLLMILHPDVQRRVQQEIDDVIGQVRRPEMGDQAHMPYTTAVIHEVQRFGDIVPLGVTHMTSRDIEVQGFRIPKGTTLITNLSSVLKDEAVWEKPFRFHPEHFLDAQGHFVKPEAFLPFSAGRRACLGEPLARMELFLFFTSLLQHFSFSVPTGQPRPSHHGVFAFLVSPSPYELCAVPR

Sequence of Cytochrome P450 2C19 (P33261 whole entry): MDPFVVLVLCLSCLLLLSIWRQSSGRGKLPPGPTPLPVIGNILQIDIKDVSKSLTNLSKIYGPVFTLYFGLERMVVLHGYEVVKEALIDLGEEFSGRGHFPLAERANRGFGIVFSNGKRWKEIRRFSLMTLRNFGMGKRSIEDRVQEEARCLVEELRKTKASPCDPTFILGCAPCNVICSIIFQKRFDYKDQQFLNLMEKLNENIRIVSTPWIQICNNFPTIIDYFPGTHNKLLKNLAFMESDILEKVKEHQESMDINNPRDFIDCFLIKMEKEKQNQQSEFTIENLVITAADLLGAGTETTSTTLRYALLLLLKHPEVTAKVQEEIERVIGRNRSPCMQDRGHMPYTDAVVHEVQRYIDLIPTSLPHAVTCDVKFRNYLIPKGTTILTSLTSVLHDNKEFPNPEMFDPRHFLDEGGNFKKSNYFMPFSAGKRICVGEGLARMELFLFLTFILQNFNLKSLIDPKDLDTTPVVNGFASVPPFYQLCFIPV
Sequence of Mitochondrial peptide methionine sulfoxide reductase (P54149 whole entry): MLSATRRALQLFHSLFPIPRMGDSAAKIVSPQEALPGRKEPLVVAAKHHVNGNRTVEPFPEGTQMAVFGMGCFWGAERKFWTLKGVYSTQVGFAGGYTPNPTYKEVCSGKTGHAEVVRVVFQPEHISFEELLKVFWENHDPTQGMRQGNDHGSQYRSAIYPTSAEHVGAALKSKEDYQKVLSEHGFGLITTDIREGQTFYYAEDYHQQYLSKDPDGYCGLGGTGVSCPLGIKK
Sequence of Steroidogenic factor 1 (Q13285 whole entry): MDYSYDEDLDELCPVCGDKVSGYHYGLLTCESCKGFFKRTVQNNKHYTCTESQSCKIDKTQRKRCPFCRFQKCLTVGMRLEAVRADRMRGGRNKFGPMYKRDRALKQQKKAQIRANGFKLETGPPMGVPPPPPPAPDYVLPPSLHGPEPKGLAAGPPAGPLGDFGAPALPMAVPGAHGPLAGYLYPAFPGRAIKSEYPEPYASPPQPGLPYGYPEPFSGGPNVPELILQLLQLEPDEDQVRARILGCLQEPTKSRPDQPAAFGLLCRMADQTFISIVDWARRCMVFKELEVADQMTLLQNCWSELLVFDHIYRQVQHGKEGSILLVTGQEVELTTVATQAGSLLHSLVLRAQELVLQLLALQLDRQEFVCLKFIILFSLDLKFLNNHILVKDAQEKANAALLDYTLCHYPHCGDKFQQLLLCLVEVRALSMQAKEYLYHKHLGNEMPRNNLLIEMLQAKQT
Sequence of Nuclear receptor subfamily 5 group A member 2 (O00482 whole entry): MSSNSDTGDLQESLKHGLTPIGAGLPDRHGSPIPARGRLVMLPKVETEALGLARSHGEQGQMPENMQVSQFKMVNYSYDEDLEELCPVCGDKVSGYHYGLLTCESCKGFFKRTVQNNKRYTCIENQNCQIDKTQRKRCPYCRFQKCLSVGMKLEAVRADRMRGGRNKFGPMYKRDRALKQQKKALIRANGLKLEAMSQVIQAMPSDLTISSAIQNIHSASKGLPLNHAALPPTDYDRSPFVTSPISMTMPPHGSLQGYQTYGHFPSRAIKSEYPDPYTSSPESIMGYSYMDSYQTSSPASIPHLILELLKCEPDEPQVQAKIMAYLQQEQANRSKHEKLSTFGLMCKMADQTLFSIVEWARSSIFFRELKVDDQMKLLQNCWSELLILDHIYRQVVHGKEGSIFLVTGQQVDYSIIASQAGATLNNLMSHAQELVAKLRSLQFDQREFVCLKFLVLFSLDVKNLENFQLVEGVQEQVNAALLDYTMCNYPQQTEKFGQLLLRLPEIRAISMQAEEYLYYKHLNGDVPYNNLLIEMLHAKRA
Sequence of Adenosylmethionine-8-amino-7-oxononanoate aminotransferase (P9WQ81 whole entry): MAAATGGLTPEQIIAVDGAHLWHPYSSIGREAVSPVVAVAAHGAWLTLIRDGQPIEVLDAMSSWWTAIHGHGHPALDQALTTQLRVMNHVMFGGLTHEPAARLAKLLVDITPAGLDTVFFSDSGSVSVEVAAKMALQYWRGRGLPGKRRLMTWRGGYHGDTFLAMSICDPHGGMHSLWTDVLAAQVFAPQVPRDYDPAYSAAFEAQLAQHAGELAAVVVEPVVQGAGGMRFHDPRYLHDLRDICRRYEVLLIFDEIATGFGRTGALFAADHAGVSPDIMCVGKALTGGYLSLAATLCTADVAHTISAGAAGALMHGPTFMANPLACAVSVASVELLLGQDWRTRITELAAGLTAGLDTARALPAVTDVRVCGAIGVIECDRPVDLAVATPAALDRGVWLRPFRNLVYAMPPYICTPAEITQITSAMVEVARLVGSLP
Sequence of Nonstructural protein 1 (Q194T2 whole entry): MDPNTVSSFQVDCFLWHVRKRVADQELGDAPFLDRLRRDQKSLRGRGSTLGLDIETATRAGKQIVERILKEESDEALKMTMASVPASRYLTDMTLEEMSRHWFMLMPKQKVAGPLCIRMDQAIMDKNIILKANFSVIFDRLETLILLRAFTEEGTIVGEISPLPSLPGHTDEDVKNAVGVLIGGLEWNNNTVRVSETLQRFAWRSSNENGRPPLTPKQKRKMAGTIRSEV

Compound: CCOC(=O)/C(C#N)=C/Nc1ccccc1OC
- IC50 [1]: 155 µM (inactive)

Compound: COc1ccc(Cn2ccc(=O)c(Cc3c(Cl)cccc3Cl)c2C)cc1
- AC50 [2]: 7.22 µM (active)

Compound: C[C@H](CO)N1C[C@H](C)[C@H](CN(C)Cc2ccc3c(c2)OCO3)Oc2c(NC(=O)c3nc4ccccc4s3)cccc2C1=O
- AC50 [3]: 4.58 µM (active)

Compound: O=C(N/N=C/c1cc(Cl)ccc1O)c1cccnc1
- EC50 (Streptococcus): 7.97 µM (active)
- AC50 (INS1): 1.71 µM (active)
- IC50 [4]: > 1.48 µM (active)
- EC50 [5]: 1.81 µM (active)
- IC50 (Nonstructural protein 1): 5.8 µM (active)
- AC50 [6]: 128 µM (active)

Compound: O=C(NCC1CCCO1)c1ccc(NC(=O)c2cccc([N+](=O)[O-])c2)cc1 (centres undefined)
- IC50 [7]: 35.9 µM (inactive)
- IC50 (Steroidogenic factor 1): 1.32 µM (active)
- IC50 [8]: 3.99 µM (active)

Compound: COc1ccc(S(=O)(=O)NNC(=O)C2Cc3c(ccc4ccccc34)O2)cc1 (centres undefined)
- AC50 (Cytochrome P450 2C19): 5.62 µM (inconclusive)
- AC50 (HEK293): > 350 µM (inactive)
- AC50 (Cytochrome P450 1A2): 25.1 µM (inconclusive)
- AC50 [6]: 74.8 µM (active)
- AC50 [9]: 13.2 µM (active)
- AC50 [10]: 43.7 µM (active)
- AC50 (Cytochrome P450 2D6): 39.8 µM (inconclusive)
